“Also recorded” adds a separate entry of the source.
What was measured:
rats = test: Punished responding procedure (modified Geller-Seifter conflict test); conditions: for Rate of responding, Punished responding / Rate of responding, Unpunished responding: 60 minute pretreatment
From the text: In the conflict test, hungry animals were trained to lever-press for food delivery in a standard operant chamber under 2 conditions. In the first condition, referred to as the unsuppressed component, food was delivered on average after 17 lever-presses were made (also called a VR17 schedule of reinforcement). In the second condition, referred to as the suppressed component and signaled by flashing lights inside the operant chamber, food was also delivered following an average of 17 lever-presses, but electric shock was additionally delivered to the floor of the cage under a separate VR17 schedule. Daily sessions consisted of 5 alternating presentations of each component type: suppressed (3 minutes in duration) and unsuppressed (2 minutes in duration).
Compound A was dissolved in distilled deionized water/lactic acid and was administered by mouth in a volume of 1 mL/kg body weight. […] Compound A was administered on Tuesday and Friday and vehicle on Thursday. Monday and Wednesday were washout/baseline days.
Standard 2-lever operant chambers were used (Med Associates). The chambers were fitted with 2 retractable response levers and a stimulus lamp over each of the 2 levers. A pellet dispenser delivered 45 mg food pellets, (Bio Serv) to a cup located inside of the chamber below and between the 2 response levers. A lamp at the top and back of the chamber served as houselights. The grid floors of the operant chambers were interfaced to shock generators and scramblers (Med Associates). All events in the chambers were controlled and monitored by a microprocessor.
There were 2 components in the procedure: 1) an unsuppressed responding component (unpunished) with 2 minutes in duration; and 2) a suppressed responding component (punished) with 3 minutes in duration.
In the unpunished component, the houselights and both stimulus lamps over the response levers were turned on, the lever on the left-hand side of the chamber extended, and a food pellet was delivered following an average of 17 responses on the lever in the chamber (range 3 to 40 responses)—a variable-ratio 17 schedule (VR17).
In the punished component (which followed the unpunished component), the right-hand lever was extended into the chamber; the stimulus lamps and houselights were turned on and off at 1 second intervals, in succession, which served as a cue for this component; and food was available under a VR17 schedule, but was accompanied by an electrical current (0.5 second duration) that was delivered to the grid floor of the chamber under an independent VR17 schedule. The level of the current was adjusted for each individual subject until responding was reduced in the punished component to a level that was about 5% to 10% that of the unpunished component, and ranged from 0.2 mA to 0.75 mA. Unpunished and punished components were separated by 10 second time-out periods in which both response levers were retracted and all stimulus lamps turned off 2 minute unpunished and 3 minute punished components alternated until 5 of each were completed. Daily sessions always began with the unpunished responding component. […] Several doses were tested on a given test day in different subjects. Each dose, then, was tested in different sub-set of rats.
The dependent variables recorded were the rate of responding in unpunished and punished components (total responses/total time under the component) and the number of shocks delivered.

Male Sprague Dawley rats = test: Learned helplessness procedure; assay type: in vivo, rat; conditions: for Mean Center Crossings ± SEM: gauge of motor activity; for Mean Escape Failures ± (SEM): of 50 trials
Procedure: Male Sprague Dawley rats were exposed to inescapable electrical stimulation for 2 successive, daily 1 hour periods (conditioning), and then subsequently trained to avoid or escape the electrical stimulation by running to the opposite side of the test cage. […] In the training phase, when the electrical stimulation was escapable, the number of escape failures was recorded. Standard shuttle cages (20 L×16 W×21 centimeters H) fitted with a grid floor were used. The chambers could be partitioned with a closed partition or with an archway that allowed the animals to pass between the 2 sides of the cage. A computer controlled and monitored all events in the chamber.
The procedure utilized involved an induction phase and an avoidance training phase. In the induction phase, rats were enclosed in one side of the shuttle cage and electrical stimulation (2 mA, […]) was delivered to the floor of the cage every 2, 5 or 10 seconds (randomly selected for each trial) until 90 electrical stimulations were delivered. Subjects had no opportunity to escape or to avoid the electrical stimulation. Induction was conducted for 2 consecutive days. In the avoidance training phase, a partition with an arch through which the rats could pass was inserted into the center of the shuttle cages. The method employed a standard shuttle avoidance in which a compound, conditioned stimulus (a 5 second presentation of a tone and turning on of a lamp on the side of the rat containing cage) served to indicate impending presentation of electrical stimulation to the floor of the cage. The electrical stimulation was presented for a 5 second period 5 seconds after initiation of the conditioned stimulus. […] A 30 second inter-trial interval was employed. 40 minute avoidance training sessions, consisting of 50 trials were conducted on 2 consecutive days, beginning 48 hours after the final induction session.
Dosages of all compounds are reported as the free base. […] Drug was administered immediately following conditioning and training sessions and approximately 7-8 hrs after the first injection, as well as on the day in the middle of the study when no conditioning or training was conducted. In study 2, imipramine was administered 30 minutes prior to avoidance training whereas in all other circumstances, drug was administered following training.
The primary dependent variable was escape failures during avoidance training. […] T-Tests were used to compare the performance of the vehicle-administered group to drug treated groups. The no-induction group was used to gauge whether learned helplessness was established, by comparison to the vehicle treated group.

[1] = Efficacious mean plasma exposure in rodent tests of anxiolysis and antidepressant activity; assay type: in vivo; conditions: rodents; separate tests of anxiolysis and antidepressant activity

Compound: CCN(CC)C(=O)c1ccc([C@H](c2cccc(N)c2)N2CCN(Cc3ccc(F)cc3)CC2)cc1 [Example 2, 4-{(R)-(3-aminophenyl)[4-(4-fluorobenzyl)piperazin-1-yl]methyl}-N,N-diethylbenzamide]
- Percent of control, Punished responding (rats; 0.21 μmol/kg by mouth): 107 ± 19.3% of control
- Percent of control, Unpunished responding (rats; 0.21 μmol/kg by mouth): 103 ± 1.63% of control
- effect on punished responding (rats; 0.21 μmol/kg by mouth): not effective
- Rate of responding, Punished responding (rats; 0.21 μmol/kg by mouth): 0.11 ± 0.02
- Rate of responding, Unpunished responding (rats; 0.21 μmol/kg by mouth): 2.06 ± 0.11
- Percent of control, Punished responding (rats; 0.63 μmol/kg by mouth): 273 ± 39.2% of control
- Percent of control, Unpunished responding (rats; 0.63 μmol/kg by mouth): 92.1 ± 5.12% of control
- Rate of responding, Punished responding (rats; 0.63 μmol/kg by mouth): 0.24 ± 0.03
- Rate of responding, Unpunished responding (rats; 0.63 μmol/kg by mouth): 2.02 ± 0.14
- Percent of control, Punished responding (rats; 2.1 μmol/kg by mouth): 298 ± 132% of control
- Percent of control, Unpunished responding (rats; 2.1 μmol/kg by mouth): 106 ± 5.60% of control
- Rate of responding, Punished responding (rats; 2.1 μmol/kg by mouth): 0.18 ± 0.04
- Rate of responding, Unpunished responding (rats; 2.1 μmol/kg by mouth): 1.95 ± 0.15
- increase in punished responding (maximal efficacy) (rats; 2.11 μmol/kg by mouth): about 300%
- Percent of control, Punished responding (rats; 6.3 μmol/kg by mouth): 207 ± 67.2% of control
- Percent of control, Unpunished responding (rats; 6.3 μmol/kg by mouth): 106 ± 2.94% of control
- Rate of responding, Punished responding (rats; 6.3 μmol/kg by mouth): 0.17 ± 0.03
- Rate of responding, Unpunished responding (rats; 6.3 μmol/kg by mouth): 1.92 ± 0.13
- Percent of control, Punished responding (rats; 21.1 μmol/kg by mouth): 272 ± 100% of control
- Percent of control, Unpunished responding (rats; 21.1 μmol/kg by mouth): 95.5 ± 4.08% of control
- Rate of responding, Punished responding (rats; 21.1 μmol/kg by mouth): 0.20 ± 0.04
- Rate of responding, Unpunished responding (rats; 21.1 μmol/kg by mouth): 1.69 ± 0.12
- effect on rate of punished responding (rats; 0.63, 2.11, 6.3, and 21.1 μmol/kg compared to vehicle controls): increased the rate of punished responding
- effect on unpunished responding (rats; at the doses tested (0.21 to 21 μmol/kg)): did not significantly decrease unpunished responding
- acute anxiolytic activity (rats; modified Geller-Seifter conflict model): has acute anxiolytic activity
- sedative/hyperactive properties (rats; observations of test subjects in their home cage): does not possess sedative/hyperactive properties
- Mean Center Crossings ± SEM (Male Sprague Dawley rats; 0.1 mg/kg by mouth twice a day): 26.6 (0.85)
- Mean Escape Failures ± (SEM) (Male Sprague Dawley rats; 0.1 mg/kg by mouth twice a day): 6.1 (3.4)
- Mean Center Crossings ± SEM (Male Sprague Dawley rats; 1 mg/kg by mouth twice a day): 30.9 (2.9)
- Mean Escape Failures ± (SEM) (Male Sprague Dawley rats; 1 mg/kg by mouth twice a day): 3.1 (1.7)
- Mean Center Crossings ± SEM (Male Sprague Dawley rats; 10 mg/kg by mouth twice a day): 26.9 (0.7)
- Mean Escape Failures ± (SEM) (Male Sprague Dawley rats; 10 mg/kg by mouth twice a day): 4.9 (2)
- effect on escape failures (Male Sprague Dawley rats; 0.1, 1 and 10 mg/kg by mouth twice a day, only the 2 higher doses significant, listed as Compound A): tended to decrease escape failures; also recorded: produced a decrease in escape failures

Compound: CN(C)CCCN1c2ccccc2CCc2ccccc21 [Imipramine, imipramine, reference compound]
- Mean Escape Failures ± (SEM) (Male Sprague Dawley rats; 20 mg/kg by mouth twice a day): 2.3 (1)

Compound: CCN(CC)C(=O)c1ccc([C@H](c2cccc(N)c2)N2CCN(Cc3ccc(F)cc3)CC2)cc1.CCN(CC)C(=O)c1ccc([C@H](c2cccc(N)c2)N2CCN(Cc3ccc(F)cc3)CC2)cc1.O=C(O)/C=C/C(=O)O.O=C(O)/C=C/C(=O)O.O=C(O)/C=C/C(=O)O [Example 3, 4-{(R)-(3-aminophenyl)[4-(4-fluorobenzyl)piperazin-1-yl]methyl}-N,N-diethylbenzamide sesquifumarate]
- mean plasma exposures shown to be efficacious [1]: ≥ 2 ng/mL

Compound: CN1C(=O)CN=C(c2ccccc2)c2cc(Cl)ccc21 [diazepam, reference compound]
- level of efficacy in the conflict model (punished responding) (rats; 3.5 μmol/kg by mouth, data not shown): ~250%

— patent publication US20120178763A1, “Method of Treating Anxious Major Depressive Disorder” (priority 2008, published 2012)
